#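 All cell lines were grown in 96-well plates and treated with compound for 48 hours. GI50 = concentration required for 50% inhibition of growth.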 Activity calls are given as the source filed them. Cut-off read from the data, not from the text of the source: active = GI50 up to about 1.1 µM and inactive = higher.
# Key:
# Test in all cases: DTP human tumour cell line panel, 48 h
# IGROV-1 = tested on: IGROV-1
# SF-539 = tested on: SF-539
# HT-29 = tested on: HT-29
# SK-MEL-28 = tested on: SK-MEL-28
# SNB-19 = tested on: SNB-19
# UACC-62 = tested on: UACC-62
# U-251 = tested on: U-251
# CAKI-1 = tested on: CAKI-1
# SR = tested on: SR
# HCT-15 = tested on: HCT-15
# TK-10 = tested on: TK-10
# 786-0 = tested on: 786-0
# NCI-H226 = tested on: NCI-H226
# SW-620 = tested on: SW-620
# SNB-75 = tested on: SNB-75
# OVCAR-3 = tested on: OVCAR-3
# MDA-MB-435 = tested on: MDA-MB-435
# RXF 393 = tested on: RXF 393
# DU-145 = tested on: DU-145
# UO-31 = tested on: UO-31
# PC-3 = tested on: PC-3
# CCRF-CEM = tested on: CCRF-CEM
# T47D = tested on: T47D
# COLO 205 = tested on: COLO 205
# HCT-116 = tested on: HCT-116
# OVCAR-8 = tested on: OVCAR-8
# SN12C = tested on: SN12C
# UACC-257 = tested on: UACC-257
# SK-OV-3 = tested on: SK-OV-3
# KM12 = tested on: KM12
# A549 = tested on: A549
# HCC 2998 = tested on: HCC 2998
# HOP-92 = tested on: HOP-92
# EKVX = tested on: EKVX
# OVCAR-5 = tested on: OVCAR-5
# Malme-3M = tested on: Malme-3M
# HL-60 = tested on: HL-60
# Hs-578T = tested on: Hs-578T
# K562 = tested on: K562
# BT-549 = tested on: BT-549
# SK-MEL-2 = tested on: SK-MEL-2
# LOX IMVI = tested on: LOX IMVI
# NCI/ADR-RES = tested on: NCI/ADR-RES
# NCI-H23 = tested on: NCI-H23
# A498 = tested on: A498
# MOLT-4 = tested on: MOLT-4
# OVCAR-4 = tested on: OVCAR-4
# MDA-N = tested on: MDA-N
# NCI-H460 = tested on: NCI-H460
# MDA-MB-231 = tested on: MDA-MB-231
# M14 = tested on: M14
# SK-MEL-5 = tested on: SK-MEL-5
# SF-295 = tested on: SF-295
# ACHN = tested on: ACHN
# MCF7 = tested on: MCF7
# NCI-H522 = tested on: NCI-H522
# HOP-62 = tested on: HOP-62
# SF-268 = tested on: SF-268
# RPMI-8226 = tested on: RPMI-8226
smiles,measurement,setting,value
COc1c2ccsc2c(OC)c2ccsc12,GI50,IGROV-1,> 100 µM (inactive)
same,GI50,SF-539,26.1 µM (inactive)
same,GI50,HT-29,> 100 µM (inactive)
same,GI50,SK-MEL-28,> 100 µM (inactive)
same,GI50,SNB-19,> 100 µM (inactive)
same,GI50,UACC-62,> 100 µM (inactive)
same,GI50,U-251,95.7 µM (inactive)
same,GI50,CAKI-1,0.478 µM (active)
same,GI50,SR,> 100 µM (inactive)
same,GI50,HCT-15,> 100 µM
same,GI50,TK-10,> 100 µM (inactive)
same,GI50,786-0,> 100 µM (inactive)
same,GI50,NCI-H226,> 100 µM (inactive)
same,GI50,SW-620,> 100 µM (inactive)
same,GI50,SNB-75,42.6 µM (inactive)
same,GI50,OVCAR-3,> 100 µM (inactive)
same,GI50,MDA-MB-435,> 100 µM (inactive)
same,GI50,RXF 393,35.2 µM (inactive)
same,GI50,DU-145,> 100 µM (inactive)
same,GI50,UO-31,> 100 µM (inactive)
same,GI50,PC-3,> 100 µM (inactive)
same,GI50,CCRF-CEM,> 100 µM (inactive)
same,GI50,T47D,> 100 µM (inactive)
same,GI50,COLO 205,> 100 µM (inactive)
same,GI50,HCT-116,> 100 µM (inactive)
same,GI50,OVCAR-8,> 100 µM (inactive)
same,GI50,SN12C,> 100 µM (inactive)
same,GI50,UACC-257,> 100 µM (inactive)
same,GI50,SK-OV-3,> 100 µM (inactive)
same,GI50,KM12,> 100 µM (inactive)
same,GI50,A549,> 100 µM (inactive)
same,GI50,HCC 2998,> 100 µM (inactive)
same,GI50,HOP-92,39.4 µM (inactive)
same,GI50,EKVX,> 100 µM (inactive)
same,GI50,OVCAR-5,> 100 µM (inactive)
same,GI50,Malme-3M,> 100 µM (inactive)
same,GI50,HL-60,> 100 µM (inactive)
same,GI50,Hs-578T,71.4 µM (inactive)
same,GI50,K562,> 100 µM (inactive)
same,GI50,BT-549,> 100 µM (inactive)
same,GI50,SK-MEL-2,> 100 µM (inactive)
same,GI50,LOX IMVI,> 100 µM (inactive)
same,GI50,NCI/ADR-RES,> 100 µM (inactive)
same,GI50,NCI-H23,> 100 µM (inactive)
same,GI50,A498,> 100 µM (inactive)
same,GI50,MOLT-4,> 100 µM (inactive)
same,GI50,OVCAR-4,> 100 µM (inactive)
same,GI50,MDA-N,> 100 µM (inactive)
same,GI50,NCI-H460,> 100 µM (inactive)
same,GI50,MDA-MB-231,> 100 µM (inactive)
same,GI50,M14,> 100 µM (inactive)
same,GI50,SK-MEL-5,> 100 µM (inactive)
same,GI50,SF-295,61.8 µM (inactive)
same,GI50,ACHN,> 100 µM (inactive)
same,GI50,MCF7,> 100 µM (inactive)
same,GI50,NCI-H522,> 100 µM (inactive)
same,GI50,HOP-62,40.2 µM (inactive)
same,GI50,SF-268,> 100 µM (inactive)
O=C(Nc1nncs1)NS(=O)(=O)n1cnc2ccccc21,GI50,IGROV-1,> 100 µM (inactive)
same,GI50,SF-539,> 100 µM (inactive)
same,GI50,HT-29,> 100 µM (inactive)
same,GI50,SK-MEL-28,> 100 µM (inactive)
same,GI50,SNB-19,> 100 µM (inactive)
same,GI50,UACC-62,> 100 µM (inactive)
same,GI50,U-251,> 100 µM (inactive)
same,GI50,CAKI-1,> 100 µM (inactive)
same,GI50,SR,> 100 µM (inactive)
same,GI50,HCT-15,> 100 µM
same,GI50,TK-10,> 100 µM (inactive)
same,GI50,786-0,> 100 µM (inactive)
same,GI50,NCI-H226,> 100 µM (inactive)
same,GI50,SW-620,> 100 µM (inactive)
same,GI50,SNB-75,> 100 µM (inactive)
same,GI50,OVCAR-3,> 100 µM (inactive)
same,GI50,MDA-MB-435,> 100 µM (inactive)
same,GI50,RXF 393,> 100 µM (inactive)
same,GI50,DU-145,> 100 µM (inactive)
same,GI50,PC-3,> 100 µM (inactive)
same,GI50,CCRF-CEM,> 100 µM (inactive)
same,GI50,T47D,> 100 µM (inactive)
same,GI50,RPMI-8226,> 100 µM (inactive)
same,GI50,COLO 205,> 100 µM (inactive)
same,GI50,HCT-116,> 100 µM (inactive)
same,GI50,OVCAR-8,> 100 µM (inactive)
same,GI50,SN12C,> 100 µM (inactive)
same,GI50,UACC-257,> 100 µM (inactive)
same,GI50,SK-OV-3,> 100 µM (inactive)
same,GI50,KM12,> 100 µM (inactive)
same,GI50,A549,> 100 µM (inactive)
same,GI50,HCC 2998,> 100 µM (inactive)
same,GI50,HOP-92,> 100 µM (inactive)
same,GI50,EKVX,> 100 µM (inactive)
same,GI50,OVCAR-5,> 100 µM (inactive)
same,GI50,Malme-3M,> 100 µM (inactive)
same,GI50,HL-60,> 100 µM (inactive)
same,GI50,Hs-578T,> 100 µM (inactive)
same,GI50,BT-549,> 100 µM (inactive)
same,GI50,SK-MEL-2,> 100 µM (inactive)
same,GI50,NCI/ADR-RES,> 100 µM (inactive)
same,GI50,NCI-H23,> 100 µM (inactive)
same,GI50,A498,> 100 µM (inactive)
same,GI50,MOLT-4,> 100 µM (inactive)
same,GI50,OVCAR-4,> 100 µM (inactive)
same,GI50,MDA-N,> 100 µM (inactive)
same,GI50,NCI-H460,> 100 µM (inactive)
same,GI50,MDA-MB-231,> 100 µM (inactive)
same,GI50,M14,> 100 µM (inactive)
same,GI50,SK-MEL-5,> 100 µM (inactive)
same,GI50,SF-295,> 100 µM (inactive)
same,GI50,ACHN,> 100 µM (inactive)
same,GI50,MCF7,> 10 µM (inactive)
same,GI50,NCI-H522,> 100 µM (inactive)
same,GI50,HOP-62,> 100 µM (inactive)
same,GI50,SF-268,> 100 µM (inactive)
O=C(/C=C1\Nc2ccccc2N\C1=C/C(=O)c1ccc(F)cc1)c1ccc(F)cc1,GI50,IGROV-1,> 100 µM (inactive)
same,GI50,SF-539,> 100 µM (inactive)
same,GI50,HT-29,> 100 µM (inactive)
same,GI50,SK-MEL-28,> 100 µM (inactive)
same,GI50,SNB-19,> 100 µM (inactive)
same,GI50,UACC-62,> 100 µM (inactive)
same,GI50,U-251,73.6 µM (inactive)
same,GI50,CAKI-1,> 100 µM (inactive)
same,GI50,SR,54.3 µM (inactive)
same,GI50,HCT-15,> 100 µM
same,GI50,TK-10,> 100 µM (inactive)
same,GI50,786-0,61.4 µM (inactive)
same,GI50,NCI-H226,> 100 µM (inactive)
same,GI50,SW-620,> 100 µM (inactive)
same,GI50,SNB-75,> 100 µM (inactive)
same,GI50,OVCAR-3,48.2 µM (inactive)
same,GI50,MDA-MB-435,> 100 µM (inactive)
same,GI50,RXF 393,> 100 µM (inactive)
same,GI50,DU-145,> 100 µM (inactive)
same,GI50,UO-31,> 100 µM (inactive)
same,GI50,PC-3,> 100 µM (inactive)
same,GI50,CCRF-CEM,25.5 µM (inactive)
same,GI50,T47D,63 µM (inactive)
same,GI50,RPMI-8226,51.4 µM (inactive)
same,GI50,COLO 205,> 100 µM (inactive)
same,GI50,HCT-116,> 100 µM (inactive)
same,GI50,OVCAR-8,> 100 µM (inactive)
same,GI50,SN12C,> 100 µM (inactive)
same,GI50,UACC-257,> 100 µM (inactive)
same,GI50,KM12,> 100 µM (inactive)
same,GI50,A549,> 100 µM (inactive)
same,GI50,HCC 2998,63.2 µM (inactive)
same,GI50,HOP-92,> 100 µM (inactive)
same,GI50,EKVX,> 100 µM (inactive)
same,GI50,OVCAR-5,> 100 µM (inactive)
same,GI50,Malme-3M,> 100 µM (inactive)
same,GI50,HL-60,46.5 µM (inactive)
same,GI50,Hs-578T,> 100 µM (inactive)
same,GI50,K562,> 100 µM (inactive)
same,GI50,BT-549,> 100 µM (inactive)
same,GI50,SK-MEL-2,> 100 µM (inactive)
same,GI50,LOX IMVI,> 100 µM (inactive)
same,GI50,NCI/ADR-RES,> 100 µM (inactive)
same,GI50,NCI-H23,> 100 µM (inactive)
same,GI50,A498,> 100 µM (inactive)
same,GI50,MOLT-4,> 100 µM (inactive)
same,GI50,OVCAR-4,> 100 µM (inactive)
same,GI50,MDA-N,> 100 µM (inactive)
same,GI50,NCI-H460,53.7 µM (inactive)
same,GI50,MDA-MB-231,> 100 µM (inactive)
same,GI50,M14,> 100 µM (inactive)
same,GI50,SK-MEL-5,> 100 µM (inactive)
same,GI50,ACHN,> 100 µM (inactive)
same,GI50,MCF7,15.1 µM (inactive)
same,GI50,NCI-H522,> 100 µM (inactive)
same,GI50,HOP-62,61 µM (inactive)
same,GI50,SF-268,> 100 µM (inactive)

# — ChEMBL document CHEMBL1201862, “PubChem BioAssay data set” (2004)
